According to PubChem BioAssay AID330 (DTP/NCI, 2004):
Several values for one entry are separate records, joined by “and”; a condition that tells them apart may be missing. Identical values can stand only once. Inconclusive results and toxic doses are left out. The calls were made as follows: active = survival T/C of 150% or more; inactive = T/C below 125% in these data.

Test system: P388 leukemia ip, CD2F1 mice, survival T/C
Assay: NCI In Vivo Anticancer Drug Screen. Data for tumor model P388 Leukemia (intraperitoneal) in CD2F1 (CDF1) mice
Details: endpoint: median survival time, higher = longer survival
Method in brief: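 Mice carrying the transplanted tumor received test compound or vehicle. Survival was recorded in each group, and the value is the treated-group measurement divided by that of the vehicle-treated control group.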

[1] = dose: 100.0 mg/kg/injection, schedule: Q04DX002 (ip), vehicle: Klucel (hydroxypropylcellulose) (HPC)
[2] = dose: 200.0 mg/kg/injection, schedule: Q04DX002 (ip), vehicle: Klucel (hydroxypropylcellulose) (HPC)
[3] = dose: 50.0 mg/kg/injection, schedule: Q01DX005 (ip), vehicle: Klucel (hydroxypropylcellulose) (HPC)
[4] = dose: 100.0 mg/kg/injection, schedule: Q01DX005 (ip), vehicle: Klucel (hydroxypropylcellulose) (HPC)
[5] = dose: 200.0 mg/kg/injection, schedule: Q01DX005 (ip), vehicle: Klucel (hydroxypropylcellulose) (HPC)
[6] = dose: 3.12 mg/kg/injection, schedule: Q01DX005 (ip), vehicle: saline
[7] = dose: 6.25 mg/kg/injection, schedule: Q01DX005 (ip), vehicle: saline
[8] = dose: 12.5 mg/kg/injection, schedule: Q01DX005 (ip), vehicle: saline

Measured: T/C

CC(NNC(=S)N1CCN(c2ccccn2)CC1)c1nccc2ccccc12 (stereo not drawn)
inactive: dose: 12.5 mg/kg/injection, schedule: Q04DX002 (ip), vehicle: Klucel (hydroxypropylcellulose) (HPC) 100 % of control | dose: 25.0 mg/kg/injection, schedule: Q04DX002 (ip), vehicle: Klucel (hydroxypropylcellulose) (HPC) 100 % of control | dose: 50.0 mg/kg/injection, schedule: Q04DX002 (ip), vehicle: Klucel (hydroxypropylcellulose) (HPC) 103 % of control | [1] 122 % of control and 124 % of control | [2] 96 % of control

CNc1ccccc1C(=O)NCCCN
inactive: [3] 98 % of control | [4] 95 % of control | [5] 95 % of control

Ic1ccc([I+]c2ccc(I)cc2)cc1
inactive: dose: 25.0 mg/kg/injection, schedule: Q01DX001 (ip), vehicle: saline with Tween-80 100 % of control | dose: 50.0 mg/kg/injection, schedule: Q01DX001 (ip), vehicle: saline with Tween-80 99 % of control | dose: 100.0 mg/kg/injection, schedule: Q01DX001 (ip), vehicle: saline with Tween-80 95 % of control | dose: 200.0 mg/kg/injection, schedule: Q01DX001 (ip), vehicle: saline with Tween-80 100 % of control | dose: 400.0 mg/kg/injection, schedule: Q01DX001 (ip), vehicle: saline with Tween-80 100 % of control

COC1C(/C=C/C(=O)CCl)OC2OC(C)(C)OC21 (stereo not drawn)
inactive: [6] 108 % of control | [7] 108 % of control | [8] 105 % of control

O=S(=O)(c1ccc(Cl)cc1)N(CCCCCN(S(=O)(=O)c1ccc(Cl)cc1)S(=O)(=O)c1ccc(Cl)cc1)S(=O)(=O)c1ccc(Cl)cc1
inactive: dose: 30.0 mg/kg/injection, schedule: Q01DX005 (ip), vehicle: Klucel (hydroxypropylcellulose) (HPC) 94 % of control | dose: 60.0 mg/kg/injection, schedule: Q01DX005 (ip), vehicle: Klucel (hydroxypropylcellulose) (HPC) 105 % of control | dose: 120.0 mg/kg/injection, schedule: Q01DX005 (ip), vehicle: Klucel (hydroxypropylcellulose) (HPC) 96 % of control | dose: 240.0 mg/kg/injection, schedule: Q01DX005 (ip), vehicle: Klucel (hydroxypropylcellulose) (HPC) 93 % of control

COC1OCC(N=[N+]=[N-])C(O)C1O (stereo not drawn)
inactive: dose: 25.0 mg/kg/injection, schedule: Q01DX005 (ip), vehicle: saline 98 % of control | dose: 50.0 mg/kg/injection, schedule: Q01DX005 (ip), vehicle: saline 102 % of control | dose: 100.0 mg/kg/injection, schedule: Q01DX005 (ip), vehicle: saline 100 % of control | dose: 200.0 mg/kg/injection, schedule: Q01DX005 (ip), vehicle: saline 102 % of control

CN(C)c1ccc2nc3ccc(N)cc3[n+](-c3ccccc3)c2c1
inactive: [6] 106 % of control | [7] 106 % of control | [8] 112 % of control

CCn1c(Cl)c(/C=N/Nc2ccccc2[N+](=O)[O-])c2cc(/C=N/Nc3ccccc3[N+](=O)[O-])ccc21
inactive: dose: 100.0 mg/kg/injection, schedule: Q01DX001 (ip), vehicle: Klucel (hydroxypropylcellulose) (HPC) 87 % of control | dose: 200.0 mg/kg/injection, schedule: Q01DX001 (ip), vehicle: Klucel (hydroxypropylcellulose) (HPC) 93 % of control | dose: 400.0 mg/kg/injection, schedule: Q01DX001 (ip), vehicle: Klucel (hydroxypropylcellulose) (HPC) 91 % of control

CCOC(=O)N(O)c1ccc(C)cc1C
inactive: dose: 50.0 mg/kg/injection, schedule: Q01DX005 (ip), vehicle: saline with Tween-80 96 % of control | dose: 100.0 mg/kg/injection, schedule: Q01DX005 (ip), vehicle: saline with Tween-80 102 % of control

C=C1CCN(c2cccc(Cl)c2)C1=O
inactive: dose: 4.0 mg/kg/injection, schedule: Q01DX009 (ip), vehicle: saline + alcohol 96 % of control | dose: 8.0 mg/kg/injection, schedule: Q01DX009 (ip), vehicle: saline + alcohol 101 % of control | dose: 16.0 mg/kg/injection, schedule: Q01DX009 (ip), vehicle: saline + alcohol 100 % of control | dose: 32.0 mg/kg/injection, schedule: Q01DX009 (ip), vehicle: saline + alcohol 105 % of control | dose: 64.0 mg/kg/injection, schedule: Q01DX009 (ip), vehicle: saline + alcohol 100 % of control

O=C1CP(=O)(O)CC2=C1CCC2
inactive: dose: 25.0 mg/kg/injection, schedule: Q01DX009 (ip), vehicle: saline 96 % of control | dose: 50.0 mg/kg/injection, schedule: Q01DX009 (ip), vehicle: saline 96 % of control | dose: 100.0 mg/kg/injection, schedule: Q01DX009 (ip), vehicle: saline 100 % of control

CC1CN1C(=O)c1cc(C(=O)N2CC2C)cc(C(=O)N2CC2C)c1 (stereo not drawn)
inactive: dose: 6.25 mg/kg/injection, schedule: Q01DX009 (ip), vehicle: saline with Tween-80 113 % of control

COC(=O)C1[C@@H](C(=O)c2ccccc2)N2C=Cc3ccccc3[C@@H]2[C@H]1C(=O)OC (stereo partly drawn)
inactive: dose: 60.0 mg/kg/injection, schedule: Q01DX005 (ip), vehicle: saline + Tween-80 + alcohol 93 % of control | dose: 120.0 mg/kg/injection, schedule: Q01DX005 (ip), vehicle: saline + Tween-80 + alcohol 93 % of control | dose: 240.0 mg/kg/injection, schedule: Q01DX005 (ip), vehicle: saline + Tween-80 + alcohol 92 % of control

CSc1nc2c(=S)[nH]c(=S)[nH]c2s1
inactive: [1] 101 % of control | [2] 100 % of control | dose: 400.0 mg/kg/injection, schedule: Q04DX002 (ip), vehicle: Klucel (hydroxypropylcellulose) (HPC) 100 % of control

CSNC(C)=O
inactive: dose: 25.0 mg/kg/injection, schedule: Q01DX009 (ip), vehicle: saline with Tween-80 102 % of control | dose: 50.0 mg/kg/injection, schedule: Q01DX009 (ip), vehicle: saline with Tween-80 109 % of control | dose: 100.0 mg/kg/injection, schedule: Q01DX009 (ip), vehicle: saline with Tween-80 111 % of control

CCCCCCCCCCCCCCCCSc1ccc(C)cc1
inactive: dose: 25.0 mg/kg/injection, schedule: Q04DX003 (ip), vehicle: other 105 % of control | dose: 50.0 mg/kg/injection, schedule: Q04DX003 (ip), vehicle: other 95 % of control | dose: 100.0 mg/kg/injection, schedule: Q04DX003 (ip), vehicle: other 100 % of control

COc1cc(-c2ccc(O)cc2)c(OC)c(O)c1-c1ccc(O)c(O)c1
inactive: dose: 0.6 mg/kg/injection, schedule: Q01DX009 (ip), vehicle: saline 100 % of control | dose: 1.2 mg/kg/injection, schedule: Q01DX009 (ip), vehicle: saline 95 % of control | dose: 10.0 micrograms/kg/injection, schedule: Q01DX009 (ip), vehicle: saline with Tween-80 111 % of control | dose: 20.0 micrograms/kg/injection, schedule: Q01DX009 (ip), vehicle: saline with Tween-80 105 % of control | dose: 40.0 micrograms/kg/injection, schedule: Q01DX009 (ip), vehicle: saline with Tween-80 104 % of control | dose: 80.0 micrograms/kg/injection, schedule: Q01DX009 (ip), vehicle: saline with Tween-80 105 % of control

O=S(=O)(Cl)c1ccccc1 (tested in a mixture with another compound)
inactive: dose: 60.0 mg/kg/injection, schedule: Q01DX005 (ip), vehicle: saline with Tween-80 104 % of control | dose: 120.0 mg/kg/injection, schedule: Q01DX005 (ip), vehicle: saline with Tween-80 99 % of control | dose: 240.0 mg/kg/injection, schedule: Q01DX005 (ip), vehicle: saline with Tween-80 99 % of control

CCCCCCCCCCS(=O)(=O)OCCCCOS(=O)(=O)CCCCCCCCCC
inactive: [3] 103 % of control | [4] 103 % of control | [5] 93 % of control

CC1C(c2ccccc2)OCCN1C(=S)Nc1ccc(S(=O)(=O)N2CCCCC2)cc1 (stereo not drawn)
inactive: dose: 50.0 mg/kg/injection, schedule: Q01DX009 (ip), vehicle: Klucel (hydroxypropylcellulose) (HPC) 86 % of control and 95 % of control | dose: 100.0 mg/kg/injection, schedule: Q01DX009 (ip), vehicle: Klucel (hydroxypropylcellulose) (HPC) 105 % of control | dose: 200.0 mg/kg/injection, schedule: Q01DX009 (ip), vehicle: Klucel (hydroxypropylcellulose) (HPC) 91 % of control and 95 % of control
